Test results: US20200222474A1, “COMPOSITIONS AND METHODS FOR INCREASING PHYTOCHEMICAL BIOAVAILABLITY AND BIOACTIVITY” (North Carolina State University, priority 2017, published 2020)

Tests used:
L. acidophilus NCFM [1] = assay: Growth of L. acidophilus NCFM on plant glycosides as single carbon source (OD600); format: cell-based, Lactobacillus acidophilus
Procedure: (§1) For initial growth and gene expression studies, L. acidophilus NCFM was propagated three times in semi-defined medium (SDM) supplemented with either 1% or 0,5% (w/v) of the plant glycoside or carbohydrate (Table 1). For the RNA-seq analysis, cells were harvested by centrifugation (3,220×10 min, 25° C.) in the mid-exponential phase (OD600=0.6-0.8) and stored at −80° C. for subsequent RNA isolation. For the mass spectrometry metabolite analyses, 200 μt samples were taken at 0, 3, 6, 9, 12, and 24 hours of growth; cells were removed by centrifugation; and supernatants were stored at −80° C. for further analysis.
(§2) Phenotypic growth assays were performed using 1% (v/v) overnight cultures of L. acidophilus strains (Table 2) and other Lactobacillus species (Table 3) grown on SDM supplemented with 1% (w/v) glucose to inoculate 200 μL of SDM supplemented with 1% (w/v) of the examined carbohydrate (0.5% in the case of esculin) in 96-well microplate wells (Corning Costar, Corning, N.Y., USA) in duplicate or triplicate wells, respectively. The microplates were sealed with clear adhesive film, incubated at 37° C. in a Fluostar Optima microplate reader (BMG Labtech, Cary, N.C., USA), and the cell optical density (OD600) was monitored for 30 hours.
(§3) The growth of L. acidophilus NCFM was evaluated on twelve chemically diverse, nutritionally relevant and/or therapeutically active PGs 1; Table 1). FIG. 1A provides the structures and common sources of plant glycoside substrates described herein. The compounds that support growth of Lactobacillus acidophilus are in green. RI: β-D-Glcp; R2: Gentiobioside (β-D-Glcp-(1,6)-D-Glcp); R3: Rutinoside (α-L-Rhaf-(1,6)-D-Glcp). The graph in FIG. 1B depicts plant glycoside utilization analyzed by mass spectrometry and the growth as the maximum OD600. Due to the low solubility of polydatin, OD600 cannot be used as a growth metric and utilization of this compound is confirmed by the production of lactate as well as a high utilization level based on the metabolite analysis.

L. acidophilus NCFM [2] = assay: Plant glycoside uptake and metabolite analysis of L. acidophilus NCFM culture supernatants by UHPLC-DAD-Q-TOF-MS; format: cell-based, Lactobacillus acidophilus
Procedure: as §1
Analysis of plant glycoside uptake from L. acidophilus NCFM culture supernatants using mass spectrometry. The supernatants of L. acidophilus NCFM cultures grown on amygdalin, arbutin, esculin or salicin as carbon sources were analyzed during 24 hours by ultra-high performance liquid chromatography-diode array detection-quadruple time of flight mass spectrometry (UHPLC-DAD-Q-TOF-MS). Samples were diluted 1:20 (v/v) with methanol and an injection volume of […] was used. Separation was carried out on an Agilent Poroshell 120 phenyl-hexyl column (2.1×150 mm, 2.7 μm) using the Agilent Infinity 1290 UHPLC system (Agilent Technologies, Santa Clara, Calif., USA) equipped with a UV/vis spectrum diode array detector. Separation was performed at 0.35 mL min-1., 60° C. with a linear gradient consisting of water (A) and acetonitrile (B) both buffered with 20 mM formic acid, starting at 10% B and increased to 100% in 15 min where it was held for 2 min, returned to 10% in 0.1 min and kept for 3 min. MS detection was performed on an Agilent 6550 iFunnel QTOF MS equipped with Agilent Dual Jet Stream electrospray ion source with the drying gas temperature of 160° C. and gas flow of 13 L min^−1, whereas the sheath gas temperature was 300° C. and flow was 16 L min-1. Ionization was conducted in ESI-mode with capillary voltage set to 4000 V and nozzle voltage to 500 V. Mass spectra were recorded as centroid data for m/z 85-1700 in MS mode with an acquisition rate of 10 spectra s^−1. To avoid carry-over, the needle seat was back-flushed for 15 s at 4 mL min-1 with each of: i) isopropanol: 0.2% ammonium hydroxide (w/v) in water (1:1 v/v); ii) acetonitrile with 2% formic acid (w/v); iii) water with 2% formic acid. Data was processed with the Agilent Mass Hunter Qualitative Analysis B.07.00 software package (Agilent Technologies) and molar concentrations were obtained from standard curves of the plant glycosides and their main metabolites. Targeted compound searches were performed using lists of previously identified compounds plus standard chemical modifications.

[3] = Solubility in growth experiments (observation); format: physicochemical; settings: in growth medium; precluded OD600 nm as growth metric
Procedure: as §3

L. gasseri ATCC 33323 = assay: Phenotypic growth assay (OD600); format: cell-based; settings: SDM + 1% (w/v) carbohydrate (0.5% esculin), 37° C., 30 hours; corrected to medium without carbohydrate
Procedure: as §2

[4] = test system: L. intestinalis Th4, ATCC 49335, DSM 6629; assay: Phenotypic growth assay (OD600); format: cell-based; settings: SDM + 1% (w/v) carbohydrate (0.5% esculin), 37° C., 30 hours; corrected to medium without carbohydrate
Procedure: as §2

[5] = test system: L. rhanmosus GG (ATCC 53103); assay: Phenotypic growth assay (OD600); format: cell-based; settings: SDM + 1% (w/v) carbohydrate (0.5% esculin), 37° C., 30 hours; corrected to medium without carbohydrate
Procedure: as §2

[6] = test system: L. plantarum sp. plantarum ATCC 14917, LA70; assay: Phenotypic growth assay (OD600); format: cell-based; settings: SDM + 1% (w/v) carbohydrate (0.5% esculin), 37° C., 30 hours; corrected to medium without carbohydrate
Procedure: as §2

[7] = test system: L. jensenii ATCC 25258, 62G, DSM 20557; assay: Phenotypic growth assay (OD600); format: cell-based; settings: SDM + 1% (w/v) carbohydrate (0.5% esculin), 37° C., 30 hours; corrected to medium without carbohydrate
Procedure: as §2

L. animalis DSM 20602 = assay: Phenotypic growth assay (OD600); format: cell-based; settings: SDM + 1% (w/v) carbohydrate (0.5% esculin), 37° C., 30 hours; corrected to medium without carbohydrate
Procedure: as §2

L. acidophilus LA-1 = assay: Phenotypic growth assay (OD600); format: cell-based; settings: SDM + 1% (w/v) carbohydrate (0.5% esculin), 37° C., 30 hours; corrected to medium without carbohydrate
Procedure: as §2

L. helveticus CNRZ32 = assay: Phenotypic growth assay (OD600); format: cell-based; settings: SDM + 1% (w/v) carbohydrate (0.5% esculin), 37° C., 30 hours; corrected to medium without carbohydrate
Procedure: as §2

L. fermentum ATCC 14931 = assay: Phenotypic growth assay (OD600); format: cell-based; settings: SDM + 1% (w/v) carbohydrate (0.5% esculin), 37° C., 30 hours; corrected to medium without carbohydrate
Procedure: as §2

[8] = test system: L. amyloverus ATCC 33620, DSM 20531; assay: Phenotypic growth assay (OD600); format: cell-based; settings: SDM + 1% (w/v) carbohydrate (0.5% esculin), 37° C., 30 hours; corrected to medium without carbohydrate
Procedure: as §2

[9] = test system: L. reuteri (ATCC 23272, DSM 20016); assay: Phenotypic growth assay (OD600); format: cell-based; settings: SDM + 1% (w/v) carbohydrate (0.5% esculin), 37° C., 30 hours; corrected to medium without carbohydrate
Procedure: as §2

[10] = test system: L. crispatus ATCC 33820, DSM 20584; assay: Phenotypic growth assay (OD600); format: cell-based; settings: SDM + 1% (w/v) carbohydrate (0.5% esculin), 37° C., 30 hours; corrected to medium without carbohydrate
Procedure: as §2

L. johnsonii ATCC 33200 = assay: Phenotypic growth assay (OD600); format: cell-based; settings: SDM + 1% (w/v) carbohydrate (0.5% esculin), 37° C., 30 hours; corrected to medium without carbohydrate
Procedure: as §2

NCK2422 (ΔLBA0725) = assay: Phenotypic growth analysis of deletion mutant (PTS EIICBA); format: cell-based, Lactobacillus acidophilus
Procedure: as §2
Construction of gene deletion mutants. The L. acidophilus NCFM genes LBA0225 and LBA0726, both encoding P-Bgl of glycoside hydrolase family 1 (GH1) enzymes in addition to the LBA0227 and LBA0725 genes encoding an EIIC and an EIICBA components of two PTS systems, respectively, were deleted using the upp-based counterselectable gene replacement system. Briefly, in-frame deletions were constructed by amplifying 650-750 bp of the up- and downstream flanking regions of the deletion targets with two primer pairs (e.g., LBA0225A/LBA0225B and LBA0225C/LBA0225D; Table 4). The resulting purified products were joined by splicing using overlap extension PCR (SOE-PCR63) and amplified to establish the deletion alleles. The SOE-PCR products, that include flanking restriction enzyme sites, were cloned within the BamHI and SacI/EcoRI sites of the pTRK935 integration vector and transformed into E. coli EC101. The resulting recombinant plasmids (pTRK1113-6) were confirmed by DNA sequencing and electroporated into L. acidophilus NCK1910 (Table 2) that contains the pTRK669 helper plasmid, and the recovery of the single- and double-crossover recombinants was performed as previously described. Recombinants carrying the new gene deletion alleles were isolated by colony PCR using primer pairs denoted up/down (e.g., LBA0225up/LBA0225down), which anneal to the flanking regions of the amplicons. Sequence integrity and in-frame deletions were verified by DNA sequencing employing the aforementioned primer pairs and primer denoted mid (e.g., LBA0225mid). The mutations were in-frame deletions of 90-96% of the coding regions.
To establish the functional significance of these two loci, single deletions of each PTS EII and P-Bgl gene, and a double deletion of both P-Bgl genes were constructed using the upp-based counter-selectable gene replacement system (Table 2) and the growth phenotypes of the mutant strains were analyzed (FIG. 3). Phenotypic growth analyses of deletion mutants of EII PTS transporters (FIGS. 3A, 3C, 3E, 3G, and 3I) and phospho-β-glucosidase (FIGS. 3B, 3D, 3F, 3H, and 3J) on the β-glucosides esculin, salicin, amygdalin and the disaccharides gentiobiose and cellobiose. The background Aupp strain is shown as a grey fill graph and the growth of the mutant strains is shown as: PTS EIIC (LBA0227, pink triangle), the phospho-β-glucosidase (LBA0225, light blue triangles), the PTS EIICBA (LBA0725, yellow squares), the second phospho-β-glucosidase (LBA0726, lilac squares) and the double phospho-β-glucosidase mutant (LBA0225/LBA0726, black stars). The color scheme is consistent with that used for the gene loci in FIG. 2.

NCK2424 (ΔLBA0726) = assay: Phenotypic growth analysis of deletion mutant (phospho-β-glucosidase); format: cell-based, Lactobacillus acidophilus; settings: compared with background Δupp strain
Procedure: as §2
Construction of gene deletion mutants. The L. acidophilus NCFM genes LBA0225 and LBA0726, both encoding P-Bgl of glycoside hydrolase family 1 (GH1) enzymes in addition to the LBA0227 and LBA0725 genes encoding an EIIC and an EIICBA components of two PTS systems, respectively, were deleted using the upp-based counterselectable gene replacement system. Briefly, in-frame deletions were constructed by amplifying 650-750 bp of the up- and downstream flanking regions of the deletion targets with two primer pairs (e.g., LBA0225A/LBA0225B and LBA0225C/LBA0225D; Table 4). The resulting purified products were joined by splicing using overlap extension PCR (SOE-PCR63) and amplified to establish the deletion alleles. The SOE-PCR products, that include flanking restriction enzyme sites, were cloned within the BamHI and SacI/EcoRI sites of the pTRK935 integration vector and transformed into E. coli EC101. […]
To establish the functional significance of these two loci, single deletions of each PTS EII and P-Bgl gene, and a double deletion of both P-Bgl genes were constructed using the upp-based counter-selectable gene replacement system (Table 2) and the growth phenotypes of the mutant strains were analyzed (FIG. 3). […]

SMILES: OC[C@H]1O[C@@H](Oc2cc(O)cc(/C=C/c3ccc(O)cc3)c2)[C@H](O)[C@@H](O)[C@@H]1O [Polydatin]
- growth on compound (OD600 not usable) (L. acidophilus NCFM [1]; verified by production of lactate and metabolite analysis): verified by production of lactate and metabolite analysis
- aglycone / main metabolite identified in culture supernatant (L. acidophilus NCFM [2]; L. acidophilus NCFM growing on the glycoside, up to 24 h): resveratrol
- Catabolism based on MS (L. acidophilus NCFM [2]; growth concentration 0.5% (w/v), qualitative: depletion of the plant glycoside and/or appearance of its metabolites): Yes
- solubility [3]: poor solubility

SMILES: O=C[C@H](O)[C@@H](O)[C@H](O[C@@H]1O[C@H](CO)[C@@H](O)[C@H](O)[C@H]1O)[C@H](O)CO [Cellobiose, reference compound]
- Growth (OD600 max class) of L. gasseri ATCC 33323 (L. gasseri ATCC 33323): ++ (“++” signifies 0.6 > OD600 max > 0.3.)
- Growth (OD600 max class) of L. intestinalis Th4, ATCC 49335, DSM 6629 [4]: − (“−” signifies OD600 max < 0.1.)
- Growth (OD600 max class) of L. rhanmosus GG (ATCC 53103) [5]: +++ (“+++” signifies OD600 max > 0.6.)
- Growth (OD600 max class) of L. plantarum sp. plantarum ATCC 14917, LA70 [6]: +++ (“+++” signifies OD600 max > 0.6.)
- Growth (OD600 max class) of L. jensenii ATCC 25258, 62G, DSM 20557 [7]: ++ (“++” signifies 0.6 > OD600 max > 0.3.)
- Growth (OD600 max class) of L. animalis DSM 20602 (L. animalis DSM 20602): + (“+” signifies 0.3 > OD600 max > 0.1.)
- Growth (OD600 max class) of L. acidophilus LA-1 (L. acidophilus LA-1): +++ (“+++” signifies OD600 max > 0.6.)
- Growth (OD600 max class) of L. helveticus CNRZ32 (L. helveticus CNRZ32): + (“+” signifies 0.3 > OD600 max > 0.1.)
- Growth (OD600 max class) of L. fermentum ATCC 14931 (L. fermentum ATCC 14931): − (“−” signifies OD600 max < 0.1.)
- Growth (OD600 max class) of L. amyloverus ATCC 33620, DSM 20531 [8]: +++ (“+++” signifies OD600 max > 0.6.)
- Growth (OD600 max class) of L. reuteri (ATCC 23272, DSM 20016) [9]: − (“−” signifies OD600 max < 0.1.)
- Growth (OD600 max class) of L. crispatus ATCC 33820, DSM 20584 [10]: − (“−” signifies OD600 max < 0.1.)
- Growth (OD600 max class) of L. johnsonii ATCC 33200 (L. johnsonii ATCC 33200): + (“+” signifies 0.3 > OD600 max > 0.1.)
- Growth (OD600 max class) of L. acidophilus NCFM (L. acidophilus NCFM [1]; SDM + 1% (w/v) carbohydrate (0.5% esculin), 37° C., 30 hours, corrected to medium without carbohydrate): ++ (“++” signifies 0.6 > OD600 max > 0.3.)
- reduction of growth on inactivation of the EIICBA (LBA0725) (NCK2422 (ΔLBA0725)): about 50%
- growth of the ΔLBA0725 mutant (inactive PTS EIICBA) (NCK2422 (ΔLBA0725); compared with background Δupp strain): moderately reduced
- growth of the ΔLBA0726 mutant (P-Bgl) (NCK2424 (ΔLBA0726)): unaffected
